The source made the active and inactive calls. The calls are words filed in the database; no cut-off is given here.
What was measured:
Rattus norvegicus [1] = experiment: Cardioprotective activity in ig dosed Sprague-Dawley rat model of LAD coronary artery ligation-induced ischemia/reperfusion assessed as change in myocardial structure at 10 to 40 mg/kg, ig pretreated twice a day for 3 days and measured 24 hrs post-reperfusion by hematoxylin and eosin staining based assay; assay type: functional, organism-based
Rattus norvegicus [2] = experiment: Cardioprotective activity in ig dosed Sprague-Dawley rat model of LAD coronary artery ligation-induced ischemia/reperfusion assessed as reduction in serum cardiac troponin1 level pretreated twice a day for 3 days and measured 24 hrs post-reperfusion; assay type: functional, organism-based
Cardiac muscle cell [3] = experiment: Cytoprotective activity against OGD/reperfusion induced injury in Sprague-Dawley rat cardiomyocytes assessed as effect on cell viability at 0.1 uM pretreated for 24 hrs followed by OGD for 2 hrs and subsequent reperfusion for 24 hrs (reference value: 43.9 to 45.4 +/- 1.1 %); assay type: functional
Rattus norvegicus [4] = experiment: Cardioprotective activity in ig dosed Sprague-Dawley rat model of LAD coronary artery ligation-induced ischemia/reperfusion assessed as myocardial cell swelling at 10 to 40 mg/kg, ig pretreated twice a day for 3 days and measured 24 hrs post-reperfusion by hematoxylin and eosin staining based assay; assay type: functional, organism-based
Rattus norvegicus [5] = experiment: (§1) Cardioprotective activity in Sprague-Dawley rat model of LAD coronary artery ligation-induced ischemia/reperfusion assessed as infarct size of left ventricle size at 40 mg/kg, ig pretreated twice a day for 3 days and measured 24 hrs post-reperfusion by TTC staining based assay (reference value: 49.1 %); assay type: functional
Cardiac muscle cell [6] = experiment: Cytoprotective activity against OGD/reperfusion induced injury in Sprague-Dawley rat cardiomyocytes assessed as effect on cell viability at 1 uM pretreated for 24 hrs followed by OGD for 2 hrs and subsequent reperfusion for 24 hrs (reference value: 43.9 to 45.4 +/- 1.1 %); assay type: functional
Cardiac muscle cell [7] = experiment: Cytoprotective activity against OGD/reperfusion induced injury in Sprague-Dawley rat cardiomyocytes assessed as effect on cell viability at 10 uM pretreated for 24 hrs followed by OGD for 2 hrs and subsequent reperfusion for 24 hrs (reference value: 43.9 to 45.4 +/- 1.1 %); assay type: functional
Cardiac muscle cell [8] = experiment: Cytotoxicity against Sprague-Dawley rat cardiomyocytes assessed as inhibition of cell growth at 10 uM treated for 50 hrs by MTT assay; assay type: cell-based
Rattus norvegicus [9] = experiment: Cardioprotective activity in ig dosed Sprague-Dawley rat model of LAD coronary artery ligation-induced ischemia/reperfusion assessed as as infarct size of left ventricle size pretreated twice a day for 3 days and measured 24 hrs post-reperfusion by TTC staining based assay; assay type: functional, organism-based
Rattus norvegicus [10] = experiment: as §1, with “20” for “40”; assay type: functional

Structure (SMILES) | Activity (Rattus norvegicus [1]) | inhibition (Rattus norvegicus [2]) | Activity (Cardiac muscle cell [3]) | Activity (Rattus norvegicus [4]) | Activity (Rattus norvegicus [5]) | Activity (Cardiac muscle cell [6]) | Activity (Cardiac muscle cell [7]) | Activity (Cardiac muscle cell [8]) | Activity (Rattus norvegicus [9]) | Activity (Rattus norvegicus [10])
CC1(C)CCC[C@](C)([C@H]2CC[C@]3(C)[C@@H]2[C@H](O)C[C@@H]2[C@@]4(C)Cc5c(C(=O)O)noc5C(C)(C)[C@@H]4[C@H](O)C[C@]23C)O1 | inactive | Dose-dependent effect | 68.2% | inactive | 20.5% | 79.2% | 89.2% | Non-Toxic | Dose-dependent effect | 
C[C@H](CS)C(=O)N1CCC[C@H]1C(=O)O [CAPTOPRIL] |  |  |  |  |  |  |  |  |  | 34%
CC(=O)Nc1nc2c(s1)C[C@]1(C)[C@H]3C[C@@H](O)[C@@H]4[C@@H]([C@@]5(C)CCCC(C)(C)O5)CC[C@@]4(C)[C@]3(C)CC(=O)[C@H]1C2(C)C |  |  | 48.6% |  |  | 53.6% | 61.2% | Non-Toxic |  | 
CC1(C)CCC[C@](C)([C@H]2CC[C@]3(C)[C@@H]2[C@H](O)C[C@@H]2[C@@]4(C)Cc5c(C(=O)O)nn(-c6ccccc6)c5C(C)(C)[C@@H]4[C@H](O)C[C@]23C)O1 |  |  | 51.2% |  |  | 56.2% | 63.1% | Non-Toxic |  | 
C=CCNc1nc2c(s1)C[C@]1(C)[C@H]3C[C@@H](O)[C@@H]4[C@@H]([C@@]5(C)CCCC(C)(C)O5)CC[C@@]4(C)[C@]3(C)CC(=O)[C@H]1C2(C)C |  |  | 61.6% |  |  | 70% | 77.4% | Non-Toxic |  | 
CC1(C)CCC[C@](C)([C@H]2CC[C@]3(C)[C@@H]2[C@H](O)C[C@@H]2[C@@]4(C)Cc5c([nH]c6ccc(OC(F)(F)F)cc56)C(C)(C)[C@@H]4C(=O)C[C@]23C)O1 |  |  | 64.4% |  |  | 70.8% | 78.4% | Non-Toxic |  | 
CC1(C)CCC[C@](C)([C@H]2CC[C@]3(C)[C@@H]2[C@H](O)C[C@@H]2[C@@]4(C)CC[C@H](O)C(C)(C)[C@@H]4[C@H](O)C[C@]23C)O1 |  |  | 47.8% |  | 30.6% | 52.3% | 61.9% | Non-Toxic |  | 
Cc1ccc2[nH]c3c(c2c1)C[C@]1(C)[C@H]2C[C@@H](O)[C@@H]4[C@@H]([C@@]5(C)CCCC(C)(C)O5)CC[C@@]4(C)[C@]2(C)CC(=O)[C@H]1C3(C)C |  |  | 58.9% |  |  | 66.4% | 73.8% | Non-Toxic |  | 
CC1(C)CCC[C@](C)([C@H]2CC[C@]3(C)[C@@H]2[C@H](O)C[C@@H]2[C@@]4(C)Cc5nccnc5C(C)(C)[C@@H]4[C@@H](O)C[C@]23C)O1 |  |  | 54.9% |  |  | 62.3% | 70.3% | Non-Toxic |  | 
CC1(C)CCC[C@](C)([C@H]2CC[C@]3(C)[C@@H]2[C@H](O)C[C@@H]2[C@@]4(C)Cc5sc(Br)nc5C(C)(C)[C@@H]4C(=O)C[C@]23C)O1 |  |  | 59.5% |  |  | 69.2% | 77.2% | Non-Toxic |  | 
CC(C)c1nc2c(s1)C[C@]1(C)[C@H]3C[C@@H](O)[C@@H]4[C@@H]([C@@]5(C)CCCC(C)(C)O5)CC[C@@]4(C)[C@]3(C)CC(=O)[C@H]1C2(C)C |  |  | 50.6% |  |  | 59.5% | 66% | Non-Toxic |  | 
CC1(C)CCC[C@](C)([C@H]2CC[C@]3(C)[C@@H]2[C@H](O)C[C@@H]2[C@@]4(C)Cc5nccnc5C(C)(C)[C@@H]4C(=O)C[C@]23C)O1 |  |  | 56.4% |  |  | 64% | 71.5% | Non-Toxic |  | 
CC1(C)CCC[C@](C)([C@H]2CC[C@]3(C)[C@@H]2[C@H](O)C[C@@H]2[C@@]4(C)Cc5sc(-c6ccccc6)nc5C(C)(C)[C@@H]4C(=O)C[C@]23C)O1 |  |  | 59.1% |  |  | 68% | 75.3% | Non-Toxic |  | 
